pKi: −log10 of the molar value.
Biological target: benzodiazepine site of the GABAA receptor
Assay: GABAA receptor binding assay (displacement of 3H-Ro15-1788)
Details: rat cortical tissue homogenate, 0.5 nM 3H-Ro15-1788 [3H-Flumazenil], 30 min at 4° C.

`CC1CC(=O)c2c(C(=O)Nc3ccc(OCCO)nc3)c[nH]c2C1` (stereo not shown) [Compound 15, N-[(2-Hydroxyethoxy)pyrid-5-yl]-4-oxo-6-methyl-4,5,6,7-tetrahydro-1H-indole-3-carboxamide] gave a pKi of 7.92.
